Measured values from the NIST ThermoML archive (doi:10.1021/acs.jced.8b00547).

Experiments:
[1] = xn = mol fraction of the nth substance listed; conditions: 101 kPa, Liquid; for speed of sound: Single path-length method; for mass density: Vibrating tube method
[2] = refractive index (Na D-line) (dimensionless); xn = mol fraction of the nth substance listed; conditions: 101 kPa, Liquid, Standard Abbe refractometry

CCCC(C)=O [pentan-2-one] + CC(C)O
Conditions	mass density, [1] [kg/m3]	refractive index, [2]	speed of sound, [1] [m/s]
298.15 K, x1 = 0.0978	782.98	1.3767	1146.5
298.15 K, x1 = 0.2344	785.78	1.3786	1157.5
298.15 K, x1 = 0.3338	787.81	1.37996	1165.5
298.15 K, x1 = 0.4126	789.5	1.38098	1171.7
298.15 K, x1 = 0.4972	791.25	1.38207	1178.4
298.15 K, x1 = 0.6036	793.49	1.3834	1186.6
298.15 K, x1 = 0.7125	795.82	1.38472	1195
298.15 K, x1 = 0.8043	797.8	1.3858	1202
298.15 K, x1 = 0.9009	799.87	1.3869	1209.1
298.15 K, x1 = 1	802.09	1.38782	1216
308.15 K, x1 = 0.0978	774.13	1.3723	1110.6
308.15 K, x1 = 0.2344	776.72	1.37412	1120.8
308.15 K, x1 = 0.3338	778.65	1.3754	1128.1
308.15 K, x1 = 0.4126	780.23	1.37637	1133.8
308.15 K, x1 = 0.4972	781.85	1.37741	1139.9
308.15 K, x1 = 0.6036	783.93	1.37867	1147.5
308.15 K, x1 = 0.7125	786.12	1.37993	1155.2
308.15 K, x1 = 0.8043	788.05	1.38098	1161.6
308.15 K, x1 = 0.9009	790.07	1.382	1168.2
308.15 K, x1 = 1	792.32	1.38284	1174.4
318.15 K, x1 = 0.0978	764.87	1.3677	1074.9
318.15 K, x1 = 0.2344	767.32	1.36948	1084.2
318.15 K, x1 = 0.3338	769.16	1.37072	1090.9
318.15 K, x1 = 0.4126	770.69	1.37167	1096.1
318.15 K, x1 = 0.4972	772.19	1.37268	1101.7
318.15 K, x1 = 0.6036	774.18	1.3739	1108.7
318.15 K, x1 = 0.7125	776.29	1.37511	1115.7
318.15 K, x1 = 0.8043	778.16	1.3761	1121.5
318.15 K, x1 = 0.9009	780.17	1.37708	1127.6
318.15 K, x1 = 1	782.44	1.37782	1133.3
328.15 K, x1 = 0.0978	755.34	1.36295	1039
328.15 K, x1 = 0.2344	757.63	1.36471	1047.7
328.15 K, x1 = 0.3338	759.42	1.36591	1054
328.15 K, x1 = 0.4126	760.87	1.36686	1058.8
328.15 K, x1 = 0.4972	762.28	1.36785	1064.1
328.15 K, x1 = 0.6036	764.21	1.36905	1070.6
328.15 K, x1 = 0.7125	766.2	1.37023	1077.2
328.15 K, x1 = 0.8043	768.09	1.3712	1082.6
328.15 K, x1 = 0.9009	770.12	1.37215	1088.3
328.15 K, x1 = 1	772.43	1.3728	1093.6
338.15 K, x1 = 0.0978	744.73	1.3579	1003.3
338.15 K, x1 = 0.2344	746.99	1.35966	1011.5
338.15 K, x1 = 0.3338	748.79	1.36085	1017.3
338.15 K, x1 = 0.4126	750.28	1.36181	1021.8
338.15 K, x1 = 0.4972	751.71	1.3628	1026.7
338.15 K, x1 = 0.6036	753.67	1.36398	1032.7
338.15 K, x1 = 0.7125	755.74	1.36515	1038.8
338.15 K, x1 = 0.8043	757.71	1.36612	1043.8
338.15 K, x1 = 0.9009	759.83	1.36705	1049
338.15 K, x1 = 1	762.27	1.36764	1053.8

CCCC(C)=O [pentan-2-one] + CCC(C)O
Conditions	mass density, [1] [kg/m3]	refractive index, [2]	speed of sound, [1] [m/s]
298.15 K, x1 = 0.1227	801.36	1.39423	1212.6
298.15 K, x1 = 0.2361	800.45	1.39353	1213.1
298.15 K, x1 = 0.3467	800.01	1.3928	1213.5
298.15 K, x1 = 0.4522	799.88	1.39205	1214
298.15 K, x1 = 0.5521	799.79	1.39133	1214.3
298.15 K, x1 = 0.6518	799.88	1.39059	1214.7
298.15 K, x1 = 0.744	800.22	1.38988	1215.1
298.15 K, x1 = 0.8299	800.65	1.38922	1215.4
298.15 K, x1 = 0.919	801.23	1.38853	1215.7
298.15 K, x1 = 1	802.09	1.38782	1216
308.15 K, x1 = 0.1227	792.32	1.38958	1175.7
308.15 K, x1 = 0.2361	791.24	1.38887	1175.5
308.15 K, x1 = 0.3467	790.78	1.38809	1175.4
308.15 K, x1 = 0.4522	790.51	1.38731	1175.3
308.15 K, x1 = 0.5521	790.25	1.38655	1175.2
308.15 K, x1 = 0.6518	790.23	1.38577	1175
308.15 K, x1 = 0.744	790.31	1.38503	1174.9
308.15 K, x1 = 0.8299	790.62	1.38434	1174.7
308.15 K, x1 = 0.919	791.25	1.38358	1174.6
308.15 K, x1 = 1	792.32	1.38284	1174.4
318.15 K, x1 = 0.1227	783.39	1.38489	1138.5
318.15 K, x1 = 0.2361	782.07	1.38415	1137.9
318.15 K, x1 = 0.3467	781.42	1.38335	1137.2
318.15 K, x1 = 0.4522	780.93	1.38254	1136.6
318.15 K, x1 = 0.5521	780.55	1.38177	1136.1
318.15 K, x1 = 0.6518	780.41	1.38095	1135.5
318.15 K, x1 = 0.744	780.42	1.38018	1134.9
318.15 K, x1 = 0.8299	780.73	1.37943	1134.4
318.15 K, x1 = 0.919	781.32	1.3786	1133.8
318.15 K, x1 = 1	782.44	1.37782	1133.3
328.15 K, x1 = 0.1227	773.65	1.37968	1101
328.15 K, x1 = 0.2361	772.15	1.37897	1100.1
328.15 K, x1 = 0.3467	771.4	1.37819	1099.2
328.15 K, x1 = 0.4522	770.91	1.3774	1098.3
328.15 K, x1 = 0.5521	770.35	1.37666	1097.5
328.15 K, x1 = 0.6518	770.02	1.37589	1096.6
328.15 K, x1 = 0.744	770.12	1.37513	1095.8
328.15 K, x1 = 0.8299	770.56	1.37437	1095.1
328.15 K, x1 = 0.919	771.22	1.37356	1094.3
328.15 K, x1 = 1	772.43	1.3728	1093.6
338.15 K, x1 = 0.1227	763.26	1.37559	1063
338.15 K, x1 = 0.2361	761.48	1.37472	1061.8
338.15 K, x1 = 0.3467	760.59	1.37383	1060.7
338.15 K, x1 = 0.4522	760.08	1.37293	1059.6
338.15 K, x1 = 0.5521	759.46	1.37206	1058.6
338.15 K, x1 = 0.6518	759.14	1.37116	1057.6
338.15 K, x1 = 0.744	759.29	1.37027	1056.6
338.15 K, x1 = 0.8299	759.87	1.36944	1055.7
338.15 K, x1 = 0.919	760.73	1.36852	1054.8
338.15 K, x1 = 1	762.27	1.36764	1053.8
